Where two headings read alike, the source gives them in different places. *1 amine or outer side, *2 acyl side, *3 side chain or, on linkers, in order; H or OH if unused. Where a SMILES comes first, the peptide text is derived from it. Bridges are numbered along the chain shown (N, C = ends). [ ]: non-standard residue; d: D form. TBMB = c1c(C[*:1])cc(C[*:3])cc1C[*:2]; hArg = N=C(N)NCCCC[C@H](N)C(=O)O; Aze = O=C(O)[C@@H]1CCN1; Sar = CNCC(=O)O
Columns and labels:
[1] = molecular target: T1, biotinylated human plasma kallikrein (Homo sapiens, UniProt P03952); experiment: Homogeneous plate-based screening assay of TBMB-cyclised phage clones (signal:background); assay type: binding
T1 construct: The human kallikrein is non-recombinant and therefore the heavy chain is present; purchased Innovative Research, Novi, Mich., USA IHPKA; host or cells: from human plasma
Procedure: Assay of binding of individual clones: Library transformant colonies were picked at random and grown as individual cultures in 2TY broth containing selective antibiotic. The picked colonies were DNA-sequenced using a QIAgen PyroMark Q96 DNA sequencer to reveal the amino-acid substitution present in each clone. Where isolated, a clone of each unique substitution was assayed for human plasma kallikrein binding as follows. The phage-containing supernatant was harvested from the culture and phage were cyclised with tris bromomethyl benzene (TBMB) based on the methods of Heinis et al (Nature Chemical Biology vol. 5 pp 502-507 (2009)). The purified phage from this process were assayed for binding to biotinylated human plasma kallikrein using a homogeneous plate-based binding assay; assay read-out measured on a BMG Labtech Pherastar FS plate reader. The quantitative binding data from triplicate assay samples was averaged (mean) and expressed as signal:background (where background was a sample assayed with no target material). The signal:background was expressed as a % of the parallel parent sample. Error bars denote standard deviation of the mean. Assays shown are representative of at least 2 independent experiments. The assay data was correlated with the peptide sequences. Substitutions marked in grey were not tested (a clone was not isolated from the random library sampling). A sample of a non-binding (arbitrary) bicycle was assayed in parallel to illustrate the assay baseline.
Assay of binding of individual clones: Library transformant colonies, or selection output colonies, were picked and grown as individual cultures in 2TY broth containing selective antibiotic. The picked colonies were DNA-sequenced using a QIAgen PyroMark Q96 DNA sequencer to reveal the amino-acid substitution present in each clone, and were assayed for human plasma kallikrein binding as follows. The phage-containing supernatant was harvested from the culture and phage were cyclised with tris-bromomethylbenzene (TBMB) based on the methods of Heinis et al (Nature Chemical Biology vol. 5 pp 502-507 (2009)). The purified phage from this process were assayed for binding to biotinylated human plasma kallikrein using a homogeneous plate-based binding assay; assay read-out measured on a BMG Labtech Pherastar FS plate reader. The quantitative binding data from duplicate assay samples was averaged (mean) and expressed as signal:background. Assay data shown is representative of at least 2 independent experiments. The assay data was correlated with the peptide sequences.

human plasma kallikrein = molecular target: T2, human plasma kallikrein (Homo sapiens, UniProt P03952); experiment: Functional enzyme assay, inhibition of human plasma kallikrein (Z-PheArg-AMC substrate); assay type: biochemical
T2 construct: purchased Stratech, UK
Procedure: (§1) Functional enzyme assays were conducted in 10 mM Tris HCl, 150 mM NaCl, 10 mM MgCl2, 1 mM CaCl2 and 1 mg/mL BSA (all Sigma UK) pH 7.4 at 25° C. in solid black 96 or 384 well plates. […] Release of AMC was measured using a Pherastar FS (BMG Labtech), excitation 360 nm, emission 460 nm. The rate of the linear phase of the reaction, typically 5 to 45 minutes, was calculated in MARS data analysis software (BMG labtech). The rate was then used to calculate the IC50 and Ki in Prism (GraphPad). A four parameter inhibition non-linear regression equation was used to calculate the IC50. […]
(§2) Peptides were dissolved as the TFA-salts in their powder form, and stock solutions were usually prepared in water. All solutions were centrifuged and filtered ([…] syringe filters) prior to absorption measurement at 280 nm. Extinction coefficients were calculated based on the Trp/Tyr content of the peptide, and that of TMB (the TMB core, when contained in a peptide, has an extinction coefficient of ˜300 M^−1 cm^−1).

rat plasma kallikrein = molecular target: T3, rat plasma kallikrein (Rattus norvegicus, UniProt P14272); experiment: Functional enzyme assay, inhibition of rat plasma kallikrein (Z-PheArg-AMC substrate); assay type: biochemical; details: Table 1, synthetic peptides; read-out: Rat (Ki)
T3 construct: polyhistidine tag followed by proTEV cleavage site (pro-peptide) (N, cleaved yes); made in house; host or cells: HEK-293 (suspension-adapted), pEXPR-IBA42 vector
Procedure: as §1, §2

rabbit kallikrein = rabbit kallikrein (Oryctolagus cuniculus, UniProt G1T127); experiment: Functional enzyme assay, inhibition of rabbit kallikrein; assay type: biochemical
Procedure: as §1, §2

[2] = Table 3, 06-254 affinity-matured library
[3] = Table 1, synthetic peptides, read-out: Human (Ki)

Chain of rabbit kallikrein (G1T127 20-629): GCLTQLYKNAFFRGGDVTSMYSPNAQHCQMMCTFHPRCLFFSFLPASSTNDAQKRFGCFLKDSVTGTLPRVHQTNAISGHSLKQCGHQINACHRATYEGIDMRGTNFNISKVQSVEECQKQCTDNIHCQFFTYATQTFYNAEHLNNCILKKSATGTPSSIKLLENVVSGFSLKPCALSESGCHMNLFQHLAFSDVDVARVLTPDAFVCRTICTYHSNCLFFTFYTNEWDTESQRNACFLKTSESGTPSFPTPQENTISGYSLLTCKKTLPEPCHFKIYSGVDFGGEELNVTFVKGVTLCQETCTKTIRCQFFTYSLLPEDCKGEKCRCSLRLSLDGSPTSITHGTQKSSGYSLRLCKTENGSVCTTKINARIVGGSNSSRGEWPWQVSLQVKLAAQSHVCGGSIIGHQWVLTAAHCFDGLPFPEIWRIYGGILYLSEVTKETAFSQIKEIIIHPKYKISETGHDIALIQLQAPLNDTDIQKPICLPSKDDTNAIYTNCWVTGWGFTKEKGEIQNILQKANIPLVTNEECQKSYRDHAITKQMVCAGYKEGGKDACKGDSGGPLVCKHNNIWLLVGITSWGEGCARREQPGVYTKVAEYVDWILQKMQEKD
T1 sequence (P03952 391-638 limits assumed): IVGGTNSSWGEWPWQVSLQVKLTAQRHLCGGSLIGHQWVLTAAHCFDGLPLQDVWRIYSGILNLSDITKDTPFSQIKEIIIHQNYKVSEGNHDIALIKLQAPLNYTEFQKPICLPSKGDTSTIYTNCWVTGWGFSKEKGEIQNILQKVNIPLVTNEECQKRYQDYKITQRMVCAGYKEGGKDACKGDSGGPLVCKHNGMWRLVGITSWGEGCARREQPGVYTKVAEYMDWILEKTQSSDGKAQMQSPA
T1 sequence (P03952 20-390 partner limits assumed): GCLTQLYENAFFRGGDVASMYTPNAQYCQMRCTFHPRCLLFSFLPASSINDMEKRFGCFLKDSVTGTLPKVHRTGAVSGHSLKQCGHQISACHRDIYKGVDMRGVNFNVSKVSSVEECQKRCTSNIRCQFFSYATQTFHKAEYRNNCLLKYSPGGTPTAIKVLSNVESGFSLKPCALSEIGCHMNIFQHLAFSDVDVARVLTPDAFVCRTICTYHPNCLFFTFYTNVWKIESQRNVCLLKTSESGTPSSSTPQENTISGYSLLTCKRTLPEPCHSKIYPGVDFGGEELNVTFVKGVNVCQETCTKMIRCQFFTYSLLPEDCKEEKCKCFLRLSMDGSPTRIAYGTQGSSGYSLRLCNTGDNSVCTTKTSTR
T2 sequence (P03952 391-638 limits assumed): as the sequence (P03952 391-638 limits assumed) above
T2 sequence (P03952 20-390 partner limits assumed): as the sequence (P03952 20-390 partner limits assumed) above
T3 sequence (P14272 391-638 limits assumed): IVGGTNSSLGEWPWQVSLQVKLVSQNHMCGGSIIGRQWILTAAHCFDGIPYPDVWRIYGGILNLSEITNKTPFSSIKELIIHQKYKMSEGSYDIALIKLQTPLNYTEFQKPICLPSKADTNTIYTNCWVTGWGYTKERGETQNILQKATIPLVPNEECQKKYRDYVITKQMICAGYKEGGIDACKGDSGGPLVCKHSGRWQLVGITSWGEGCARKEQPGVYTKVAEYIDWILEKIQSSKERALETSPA

CC[C@H](C)[C@@H]1NC(=O)[C@H](CC(C)C)NC(=O)[C@H](CC(=O)O)NC(=O)[C@@H]2CSCc3cc(cc(c3)CSC[C@@H](C(=O)N[C@@H](C)C(N)=O)NC(=O)[C@H]([C@@H](C)O)NC(=O)[C@H]([C@@H](C)O)NC(=O)[C@H](CCC(=O)O)NC1=O)CSC[C@H](NC(=O)[C@H](C)N)C(=O)N[C@@H](CCCCN)C(=O)N[C@@H](CC(N)=O)C(=O)N[C@@H](Cc1ccc(O)cc1)C(=O)N[C@@H](Cc1c[nH]c3ccccc13)C(=O)N[C@@H](CC(N)=O)C(=O)N1CCC[C@H]1C(=O)N2 [06-254-01] (H-ACKNYWNPCDLIETTCA-NH2; linker 2-9-16 via TBMB; N-terminus and C-terminus assumed)
S:B (Signal:Background) [1, 2]: 61.90

CC[C@H](C)[C@@H]1NC(=O)[C@H](CC(C)C)NC(=O)[C@H](CC(=O)O)NC(=O)[C@@H]2CSCc3cc(cc(c3)CSC[C@@H](C(=O)N[C@@H](C)C(N)=O)NC(=O)[C@@H]3CCCN3C(=O)CNC(=O)[C@@H]3CCCN3C1=O)CSC[C@H](NC(=O)[C@H](C)N)C(=O)N[C@@H](CCCCN)C(=O)N[C@@H](CC(N)=O)C(=O)N[C@@H](Cc1ccc(O)cc1)C(=O)N[C@@H](Cc1c[nH]c3ccccc13)C(=O)N[C@@H](CC(N)=O)C(=O)N1CCC[C@H]1C(=O)N2 [06-254-02] (H-ACKNYWNPCDLIPGPCA-NH2; linker 2-9-16 via TBMB; N-terminus assumed)
S:B (Signal:Background) [1, 2]: 46.65 | Ki (human plasma kallikrein; Table 5, read-out: Human (Ki)): 0.5 nM

CSCC[C@@H]1NC(=O)[C@H](C(C)C)NC(=O)[C@H](CC(C)C)NC(=O)[C@H](CC(=O)O)NC(=O)[C@@H]2CSCc3cc(cc(c3)CSC[C@@H](C(=O)N[C@@H](C)C(N)=O)NC(=O)[C@H]([C@@H](C)O)NC(=O)[C@H](CC(=O)O)NC1=O)CSC[C@H](NC(=O)[C@H](C)N)C(=O)N[C@@H](CCCCN)C(=O)N[C@@H](CC(N)=O)C(=O)N[C@@H](Cc1ccc(O)cc1)C(=O)N[C@@H](Cc1c[nH]c3ccccc13)C(=O)N[C@@H](CC(N)=O)C(=O)N1CCC[C@H]1C(=O)N2 [06-254-03] (H-ACKNYWNPCDLVMDTCA-NH2; linker 2-9-16 via TBMB; N-terminus and C-terminus assumed)
S:B (Signal:Background) [1, 2]: 56.70 | Ki (human plasma kallikrein; Table 5, read-out: Human (Ki)): 1.4 nM

CC(C)[C@@H]1NC(=O)[C@H](CCCNC(=N)N)NC(=O)[C@@H]2CSCc3cc(cc(c3)CSC[C@@H](C(=O)N[C@@H](C)C(N)=O)NC(=O)[C@H](Cc3ccc(O)cc3)NC(=O)[C@H](CCCNC(=N)N)NC(=O)[C@H]([C@@H](C)O)NC(=O)[C@H](CC(=O)O)NC1=O)CSC[C@H](NC(=O)[C@H](C)N)C(=O)N[C@@H](CCC(N)=O)C(=O)N[C@@H](CCCCN)C(=O)N[C@@H](Cc1ccccc1)C(=O)N[C@@H](CCC(=O)O)C(=O)N[C@@H](CO)C(=O)N[C@@H](CCCNC(=N)N)C(=O)N2 [06-256] (H-ACQKFESRCRVDTRYCA-NH2; linker 2-9-16 via TBMB; N-terminus assumed)
Ki (rat plasma kallikrein): 2780 nM | Ki (rabbit kallikrein; Table 1, synthetic peptides, read-out: Rabbit (Ki)): 1460 nM | Ki (rabbit kallikrein; Table 5, read-out: Rabbit (Ki)): 1460 nM | Ki (human plasma kallikrein; [3]): 6.6 nM

CSCC[C@@H]1NC(=O)[C@H](CCCNC(=N)N)NC(=O)[C@H](CCCNC(=N)N)NC(=O)[C@H](Cc2ccc(O)cc2)NC(=O)[C@@H]2CSCc3cc(cc(c3)CSC[C@H](NC(=O)[C@H](C)N)C(=O)N3CCC[C@H]3C(=O)N[C@@H](CC(C)C)C(=O)N[C@@H](CO)C(=O)N[C@@H](CC(=O)O)C(=O)N[C@@H]([C@@H](C)O)C(=O)N[C@@H](CC(C)C)C(=O)N2)CSC[C@@H](C(=O)N[C@@H](C)C(N)=O)NC(=O)[C@@H]2CCCN2C(=O)[C@@H]2CCCN2C1=O [06-257] (H-ACPLSDTLCYRRMPPCA-NH2; linker 2-9-16 via TBMB; N-terminus assumed)
Ki (rat plasma kallikrein): 159 nM | Ki (human plasma kallikrein; [3]): 36.1 nM

CC(C)[C@@H]1NC(=O)[C@H](CO)NC(=O)[C@@H]2CSCc3cc(cc(c3)CSC[C@@H](C(=O)N[C@@H](C)C(N)=O)NC(=O)[C@H](C(C)C)NC(=O)[C@@H]3CCCN3C(=O)[C@@H]3CCCN3C(=O)[C@H](CCC(=O)O)NC1=O)CSC[C@H](NC(=O)[C@H](C)N)C(=O)N[C@@H](CC(N)=O)C(=O)N[C@@H](Cc1c[nH]cn1)C(=O)N[C@@H](Cc1c[nH]c3ccccc13)C(=O)N[C@@H](CC(N)=O)C(=O)N1CCC[C@H]1C(=O)N[C@@H](Cc1c[nH]c3ccccc13)C(=O)N2 [06-259-01] (H-ACNHWNPWCSVEPPVCA-NH2; linker 2-9-16 via TBMB; N-terminus assumed)
S:B (Signal:Background) ([1]; Table 4, 06-259 affinity-matured library): 51.67

CC(C)C[C@@H]1NC(=O)[C@@H]2CCCN2C(=O)[C@H](C)NC(=O)[C@H](CC(=O)O)NC(=O)[C@H](Cc2c[nH]c3ccccc23)NC(=O)[C@@H]2CCCN2C(=O)[C@@H]2CSCc3cc(cc(c3)CSC[C@@H](C(=O)N[C@@H](C)C(N)=O)NC1=O)CSC[C@H](NC(=O)[C@H](C)N)C(=O)N[C@@H](CC(N)=O)C(=O)N[C@@H](Cc1ccc(O)cc1)C(=O)N[C@@H](Cc1c[nH]c3ccccc13)C(=O)N[C@@H](CC(N)=O)C(=O)N1CCC[C@H]1C(=O)N[C@@H](Cc1c[nH]c3ccccc13)C(=O)N2 [06-259-04] (H-ACNYWNPWCPWDAPLCA-NH2; linker 2-9-16 via TBMB; N-terminus assumed)
Ki (human plasma kallikrein; Table 5, read-out: Human (Ki)): 3.4 nM

CC[C@H](C)[C@@H]1NC(=O)[C@H](CC(C)C)NC(=O)[C@H]([C@@H](C)O)NC(=O)[C@@H]2CSCc3cc(cc(c3)CSC[C@@H](C(=O)N[C@@H](C)C(=O)N(C)CC(=O)N(C)CC(=O)N(C)CC(=O)N[C@H](CCCNC(=N)N)C(=O)N[C@H](CCCNC(=N)N)C(N)=O)NC(=O)[C@H]([C@@H](C)O)NC(=O)[C@H]([C@@H](C)CC)NC(=O)[C@H](CC(N)=O)NC1=O)CSC[C@H](NC(C)=O)C(=O)N[C@@H](CCCNC(=N)N)C(=O)N[C@@H](CC(N)=O)C(=O)N[C@@H](Cc1ccc(O)cc1)C(=O)N[C@@H](Cc1c[nH]c3ccccc13)C(=O)N[C@@H](CC(N)=O)C(=O)N1CCC[C@H]1C(=O)N2 [Ac-(06-255)-Sar3-(DArg2)] (Ac-CRNYWNPCTLINITCA[Sar][Sar][Sar][dR][dR]-NH2; linker 1-8-15 via TBMB)
Ki (human plasma kallikrein): 1.2 nM

CC[C@H](C)[C@@H]1NC(=O)[C@H](CC(C)C)NC(=O)[C@H]([C@@H](C)O)NC(=O)[C@@H]2CSCc3cc(cc(c3)CSC[C@H](NC(C)=O)C(=O)N[C@@H](CCCNC(=N)N)C(=O)N[C@@H](CC(N)=O)C(=O)N[C@@H](Cc3ccc(O)cc3)C(=O)N[C@@H](Cc3c[nH]c4ccccc34)C(=O)N[C@@H](CC(N)=O)C(=O)N3CCC[C@H]3C(=O)N2)CSC[C@@H](C(N)=O)NC(=O)[C@H]([C@@H](C)O)NC(=O)[C@H]([C@@H](C)CC)NC(=O)[C@H](CC(N)=O)NC1=O [Ac-(06-255)] (Ac-CRNYWNPCTLINITC-NH2; linker 1-8-15 via TBMB; C-terminus assumed)
Ki (rabbit kallikrein): 342 nM

CC[C@H](C)[C@@H]1NC(=O)[C@H](CC(=O)O)NC(=O)[C@@H]2CCCN2C(=O)[C@H](Cc2ccc(O)cc2)NC(=O)[C@H](Cc2ccc(O)cc2)NC(=O)[C@H](C(C)C)NC(=O)[C@@H]2CSCc3cc(cc(c3)CSC[C@H](NC(C)=O)C(=O)N[C@@H](CO)C(=O)N[C@@H](Cc3ccccc3)C(=O)N3CC[C@H]3C(=O)N[C@@H](Cc3ccc(O)cc3)C(=O)N[C@@H](CCCCNC(=N)N)C(=O)N2)CSC[C@@H](C(N)=O)NC1=O [Ac-(06-550) Aze3 HArg5] (Ac-CSF[Aze]Y[hArg]CVYYPDIC-NH2; linker 1-7-14 via TBMB)
Ki (human plasma kallikrein): 0.5 nM

From US10894808B2, “Polypeptide ligands specific for plasma kallikrein” (BicycleRD Limited, priority 2013, dated 2021)
